Experimental data: ChEMBL document CHEMBL5252541, “Repurposing antipsychotic drugs into antifungal agents: Synergistic combinations of azoles and bromperidol derivatives in the treatment of various fungal infections” (Eur J Med Chem, 2017)
≈ marks a conversion by molar mass, not a printed value.

What was measured:
[1] = Cytotoxicity against mouse J774.A1 cells assessed as cell survival at 16 microg/ml by XTT assay; assay type: toxicity, cell-based; settings: at 16 µg/mL, read-out: Activity
[2] = Cytotoxicity against mouse J774.A1 cells assessed as cell survival at 8 microg/ml by XTT assay; assay type: toxicity, cell-based; settings: J774.A1 cells, at 8 µg/mL, read-out: Activity
HEK293 [3] = experiment: Cytotoxicity against HEK293 cells assessed as cell survival up to 4 microg/ml by XTT assay; assay type: toxicity, cell-based; settings: human, dose < 4 µg/ml
Candida albicans [4] = experiment: Synergistic antifungal activity against Candida albicans ATCC MYA-2310 assessed as posaconazole MIC measured after 48 hrs by checkboard based microplate reader analysis; assay type: functional
[5] = Cytotoxicity against HEK293 cells assessed as cell survival by XTT assay; assay type: toxicity, cell-based; settings: human, read-out: Activity
Candida albicans [6] = experiment: Synergistic antifungal activity against Candida albicans ATCC 90819 assessed as posaconazole MIC measured after 48 hrs by checkboard based microplate reader analysis; assay type: functional
Candida albicans [7] = experiment: Antifungal activity against Candida albicans ATCC 10231 measured after 48 hrs by broth microdilution analysis; assay type: functional
Candida albicans [8] = experiment: Synergistic antifungal activity against Candida albicans ATCC 64124 assessed as posaconazole MIC measured after 48 hrs by checkboard based microplate reader analysis; assay type: functional
Candida albicans [9] = experiment: Antifungal activity against Candida albicans ATCC 64124 measured after 48 hrs by broth microdilution analysis; assay type: functional
Candida albicans [10] = experiment: Synergistic antifungal activity against Candida albicans ATCC MYA-1003 assessed as posaconazole MIC measured after 48 hrs by checkboard based microplate reader analysis; assay type: functional
Nakaseomyces glabratus [11] = experiment: Synergistic antifungal activity against Candida glabrata ATCC 2001 assessed as posaconazole MIC measured after 48 hrs by checkboard based microplate reader analysis; assay type: functional
Candida albicans [12] = experiment: Additive antifungal activity against Candida albicans ATCC MYA-1237 assessed as fractional inhibitory concentration index measured for 72 hrs in presence of posaconazole; assay type: functional
J774.A1 = experiment: Cytotoxicity against mouse J774.A1 cells assessed as cell survival up to 4 microg/ml by XTT assay; assay type: toxicity, cell-based; settings: dose < 4 µg/ml
HEK293 [13] = experiment: Cytotoxicity against HEK293 cells assessed as cell survival at 8 microg/ml by XTT assay; assay type: toxicity, cell-based; settings: human, dose 8 µg/ml
Aspergillus terreus [14] = experiment: Antifungal activity against Aspergillus terreus ATCC MYA-3633 measured after 48 hrs by broth microdilution analysis; assay type: functional
[15] = Cytotoxicity against HEK293 cells assessed as cell survival at 16 microg/ml by XTT assay; assay type: toxicity, cell-based; settings: human, at 16 µg/mL, read-out: Activity
Candida albicans [16] = experiment: Antifungal activity against Candida albicans ATCC MYA-1003 measured after 48 hrs by broth microdilution analysis; assay type: functional
Candida albicans [17] = experiment: Antifungal activity against Candida albicans ATCC 90819 measured after 48 hrs by broth microdilution analysis; assay type: functional
Candida albicans [18] = experiment: Synergistic antifungal activity against Candida albicans ATCC MYA-1237 assessed as posaconazole MIC measured after 48 hrs by checkboard based microplate reader analysis; assay type: functional
BEAS-2B = experiment: Cytotoxicity against human BEAS-2B cells assessed as cell survival up to 4 microg/ml by XTT assay; assay type: toxicity, cell-based; settings: dose < 4 µg/ml
Candida albicans [19] = experiment: Antifungal activity against Candida albicans ATCC MYA-2876 measured after 48 hrs by broth microdilution analysis; assay type: functional
Candida albicans [20] = experiment: Synergistic antifungal activity against Candida albicans ATCC 10231 assessed as posaconazole MIC measured after 48 hrs by checkboard based microplate reader analysis; assay type: functional
Candida albicans [21] = experiment: Synergistic antifungal activity against Candida albicans ATCC MYA-2876 assessed as posaconazole MIC measured after 48 hrs by checkboard based microplate reader analysis; assay type: functional
Candida albicans [22] = experiment: Antifungal activity against Candida albicans ATCC MYA-1237 measured after 48 hrs by broth microdilution analysis; assay type: functional
Aspergillus terreus [23] = experiment: Synergistic antifungal activity against Aspergillus terreus ATCC MYA-3633 assessed as posaconazole MIC measured after 48 hrs by checkboard based microplate reader analysis; assay type: functional
[24] = Cytotoxicity against human BEAS-2B cells assessed as cell survival by XTT assay; assay type: toxicity, cell-based; settings: read-out: Activity
[25] = Cytotoxicity against mouse J774.A1 cells assessed as cell survival by XTT assay; assay type: toxicity, cell-based; settings: read-out: Activity
Nakaseomyces glabratus [26] = experiment: Antifungal activity against Candida glabrata ATCC 2001 measured after 48 hrs by broth microdilution analysis; assay type: functional

CC[C@@H]([C@H](C)O)n1ncn(-c2ccc(N3CCN(c4ccc(OC[C@@H]5CO[C@@](Cn6cncn6)(c6ccc(F)cc6F)C5)cc4)CC3)cc2)c1=O [POSACONAZOLE]
viability at 16 microg/ml [1]: 46%
viability at 8 microg/ml [2]: 80%
Activity (HEK293 [3]): Non-Toxic
MIC (Candida albicans [4]): 0.5 µg/mL
viability [5]: > 100%
MIC (Candida albicans [6]): 0.25 µg/mL
MIC (Candida albicans [7]): 1 µg/mL (≈ 1.43 µM)
MIC (Candida albicans [8]): 2 µg/mL
MIC (Candida albicans [9]): > 32 µg/mL
MIC (Candida albicans [10]): 0.5 µg/mL
MIC (Nakaseomyces glabratus [11]): 0.25 µg/mL
fractional inhibitory concentration index (FICI) (Candida albicans [12]): 2
Activity (J774.A1): Non-Toxic
Activity (HEK293 [13]): Non-Toxic
MIC (Aspergillus terreus [14]): 0.25 µg/mL (≈ 0.357 µM)
viability at 16 microg/ml [15]: 45%
MIC (Candida albicans [16]): > 32 µg/mL
MIC (Candida albicans [17]): > 32 µg/mL
MIC (Candida albicans [18]): 0.5 µg/mL
Activity (BEAS-2B): Non-Toxic
MIC (Candida albicans [19]): > 32 µg/mL
MIC (Candida albicans [20]): 0.125 µg/mL
MIC (Candida albicans [21]): > 32 µg/mL
MIC (Candida albicans [22]): > 32 µg/mL
MIC (Aspergillus terreus [23]): 0.25 µg/mL
viability [24]: > 100%
viability [25]: > 100%
MIC (Nakaseomyces glabratus [26]): > 32 µg/mL
